# Test results from patent US20080317858A1, “FORMULATIONS OF N-(2-ACETYL-4,6-DIMETHYLPHENYL)-3--2-THIOPHENECARBOXAMIDE” (priority 2007, published 2008).
smiles,measurement,value
"CC(=O)c1cc(C)cc(C)c1NC(=O)c1sccc1S(=O)(=O)Nc1onc(C)c1C [N-(2-acetyl-4,6-dimethylphenyl)-3-{[(3,4 dimethyl-5-isoxazolyl)amino]sulfonyl}-2-thiophenecarboxamide]",melting point,158 to 160 °C
